The source of these data is paper PMC12040169 (PLOS Biology, 2025).

This data set in a line: in vitro. As to conditions: human, hela cells, % viability.

As for `O=C(O)c1cccc(N2C(=O)C3C(C2=O)C2(c4ccccc4)C(=O)C3(c3ccccc3)C(c3ccccc3)=C2c2ccccc2)c1` (centres unmarked) [CBK262439], the viability (usually a read-out of living cells in per cent, often relative to untreated cells) at 28.5 h, 10 µM was found to be 84.8%. In the case of `O=C(c1cccnc1)C1CCN(C(=O)c2ccccc2F)CC1` [CBK283853], the viability at 28.5 h, 10 µM turned out to be 95.1%.

Turning to `CCC(C)NC(=O)Cn1c(C2CCCNC2)cc2cccnc21` (centres unmarked) [CBK285085], the viability at 28.5 h, 10 µM amounted to 109%. Same read-out and setting: for `O=C(O)CC(C(=O)O)c1ccc(F)cc1` (centres unmarked) [CBK268531] the value was 87.6%; for `O=C(NC(=S)Nc1ccc(S(=O)(=O)Nc2nccs2)cc1)C12CC3CC(CC(C3)C1)C2` [CBK261067], 101%.

Take `Cc1ccc2nc3c(cc2c1)CNCC(C)O3` (centres unmarked) [CBK281941]: the viability at 28.5 h, 10 µM was determined as 85.9%. Same read-out and setting: for `Cc1ccc(CN(CCCn2ccnc2)Cc2ccsc2)o1` [CBK283253] the value was 96.4%; for `COc1cc(Nc2cc(-c3ccc(NC(C)=O)cc3)ncn2)cc(OC)c1OC` [CBK090710], 103%. Consider `O=C(Nc1ccc(N2CCN(Cc3ccccc3F)CC2)cc1)c1cc2ccccc2o1` [CBK267210], for which the viability at 28.5 h, 10 µM is 87.4%. The same measure, in the same setting: the value for `Cc1ccnc2c1C(=O)C1(CC2)CCN(C(=O)Nc2ccc(F)cc2F)CC1` [CBK059553T] was 91.3%; that for `Cc1ccc(C2(C(=O)N3CCCC3)CCN(S(=O)(=O)c3ccc(C)cc3)CC2)cc1` [CBK008752] was 102%; that for `Cc1ccc(-c2n[nH]c(=S)n2CCC(=O)NC(C)c2ccc3c(c2)CCCC3)cc1` (centres unmarked) [CBK295666] was 90.1%.

For the compound `Cc1nc(SCC(=O)NCC2CCCOC2)oc1C` (centres unmarked) [CBK282195], the viability at 28.5 h, 10 µM stood at 94.6%. The same measure, in the same setting: for `CC(C)CNC(=O)c1cc(C2CN(Cc3c[nH]nc3C(C)(C)C)CCO2)nc2ccccc12` (centres unmarked) [CBK285925] the value was 104%; for `CCOc1ccc(S(=O)(=O)N2CCSC2c2ccc(OC)c([N+](=O)[O-])c2)cc1` (centres unmarked) [CBK263293], 101%. On the same count and under the same terms, the value for `O=C(O)c1cc(NC(=O)c2ccc(Oc3ccc([N+](=O)[O-])cc3)cc2)cc(C(=O)O)c1` [CBK261188] was 88.6%; that for `Cc1sc2ncnc(NCCOCCO)c2c1C` [CBK265907] was 104%. As for `Cc1ccc2c(c1)CN(C(=O)C1CC1C)CC1(CCN(C)CC1)O2` (centres unmarked) [CBK284833], the viability at 28.5 h, 10 µM came out at 94.5%. For `CCOc1ccccc1CN(C)c1cc(C2CC(N)C2)nc(N)n1` (centres unmarked) [CBK307308], the viability at 28.5 h, 10 µM turned out to be 82.4%. Turning to `CN(C)Cc1nc(C(=O)N2CCn3nc(C(O)C4CC4)cc3C2)cs1` (centres unmarked) [CBK307489], the viability at 28.5 h, 10 µM worked out at 101%. The same measure, in the same setting: the value for `c1ccc2c(c1)N1CCCN=C1N2CCN1CCOCC1` [CBK278300C] was 108%; that for `CNC(=O)c1ccc(-c2ccccc2C)nc1NCCOC` [CBK106007] was 99.7%. On to `O=c1ccc2c(-c3cccc(C(F)(F)F)c3)ccnc2[nH]1` [CBK073733], for which the viability at 28.5 h, 10 µM stood at 90.5%. Same read-out and setting: the value for `O=C(O)CC/C(=N\NC(=O)c1cccnc1)c1ccccc1` [CBK261305] was 97.2%.

As to `O=C1CC(N2CCN(c3ccccc3)CC2)C(=O)N1c1cccc2ccccc12` (centres unmarked) [CBK261263], the viability at 28.5 h, 10 µM came to 92.8%. Same read-out and setting: for `CCCC(NC(=O)C1C=CCN1S(C)(=O)=O)c1cccs1` (centres unmarked) [CBK282668] the value was 92.9%; for `CC(=O)N1CC[C@@H]2NC(=O)[C@H]3C[C@H](NC(=O)c4ccc(F)c(Cl)c4)CN3C(=O)[C@H]21` [CBK289270], 87%. The same measure, in the same setting: the value for `CC(=O)c1ccc(S(=O)(=O)N2CCCCC2C)cc1` (centres unmarked) [CBK069211] was 90%.

Regarding `C[C@H](Oc1cncc(N2CCNCC2)n1)c1ccccc1Cl` [CBK172341G], the viability at 28.5 h, 10 µM came to 108%.

On to `COc1nc(N)nc2c1ccn2C1CC(O)C(CO)O1` (centres unmarked) [CBK201177], for which the viability at 28.5 h, 10 µM came out at 98.6%. Still for that read-out and setting: for `CCOC(=O)c1[nH]c2ccccc2c1NC(=O)[C@@H]1CCCN1C` [CBK160171T] the value was 84.9%.

On to `O=c1[nH]ccn1CCNc1cc(-c2cccc3oc4ccccc4c23)ncn1` [CBK037726], for which the viability at 28.5 h, 10 µM was found to be 102%. Same read-out and setting: for `O=c1c([N+](=O)[O-])c[nH]c2nc(-c3ccncc3)nn12` [CBK288531N] the value was 87.8%; for `Cc1ccccc1-n1ccn(C(=O)CCCOc2ccc(Cl)cc2)c1=O` [CBK106573], 88.5%. With `Fc1ccc(OCCOc2ccccc2-c2ccc3c(c2)COC2(CCNCC2)O3)cc1` [CBK105745], the viability at 28.5 h, 10 µM (bulk resorufin, single well) was determined as 88.7%. As to `CC(=O)NCCCCCC(=O)Nc1ccc(C(=O)O)cc1` [CBK287241], the viability at 28.5 h, 10 µM is 101%. Turning to `CCOC(=O)c1[nH]c(C)c(/C=C/C2=CCN(C)CC2)c1C` [CBK283761], the viability at 28.5 h, 10 µM worked out at 99.3%. The same measure, in the same setting: for `CCN(CC)CCCNc1nc2ccc(O)cc2s1` [CBK023880C] the value was 105%.

Take `CCOC(=O)c1ccc(Nc2nnc3nc(C)cc(C)n23)cc1` [CBK267600]: the viability at 28.5 h, 10 µM amounted to 93.1%.

Consider `COc1nccnc1-c1cnn(C)c1` [CBK107069], for which the viability at 28.5 h, 10 µM is 89.6%.

For the compound `O=C(c1cc[nH]n1)N1CCCC(c2cc3ccccc3cn2)C1` (centres unmarked) [CBK284921], the viability at 28.5 h, 10 µM came to 85.2%. In the case of `COc1ccc(C)cc1NC(=O)CSc1nnc(-c2ccccc2Cl)n1-c1ccccc1` [CBK267538], the viability at 28.5 h, 10 µM was determined as 82.9%.

With `O=C(c1[nH]c2ccccc2c1NS(=O)(=O)Cc1ccccc1[N+](=O)[O-])N1CCOCC1` [CBK050079], the viability at 28.5 h, 10 µM worked out at 107%.

As for `CNCCC(Sc1ccccn1)c1ccccc1` (centres unmarked) [CBK021724C], the viability at 28.5 h, 10 µM was 93.5%. Still for that read-out and setting: for `C/C(=N\NC(=O)CCc1c(C)n[nH]c1C)c1ccc(N)cc1` [CBK262935] the value was 97.7%; for `CCC(CO)Nc1cncc(-c2cccc(C(F)(F)F)c2)n1` (centres unmarked) [CBK065783], 99.4%.

In the case of `O=C(O)c1ccc(NC(=O)c2cnccn2)cc1` [CBK268110], the viability at 28.5 h, 10 µM amounted to 94%. As to `N=C(N)NCCc1ccc(Cl)cc1` [CBK024074G], the viability at 28.5 h, 10 µM turned out to be 105%. Regarding `CN(C)CCN1CCN(c2nc(-c3ccc(S(C)(=O)=O)cc3)cnc2N)CC1` [CBK063457], the viability at 28.5 h, 10 µM was determined as 100%.

`O=C(Cc1nc(-c2ccncc2)n[nH]1)NC1CCCCC1` [CBK288544]: the viability at 28.5 h, 10 µM came to 110%. Turning to `COc1ccc(-c2nc3cc(NC(=O)COc4ccccc4[N+](=O)[O-])ccc3o2)cc1Cl` [CBK263412], the viability at 28.5 h, 10 µM was 99.2%. On the same count and under the same terms, for `O=C(CNC(=O)c1ccccc1)N/N=C/c1ccc(C(=O)O)cc1` [CBK261976] the value was 102%. For `N#CCCCN1CCC2(CC1)CN(C(=O)CO)c1ccccc12` [CBK137007], the viability at 28.5 h, 10 µM worked out at 86%. On the same count and under the same terms, for `c1ccc2c(CCNc3nccnc3-c3ccoc3)c[nH]c2c1` [CBK036743] the value was 102%; for `CCN(CC)C(=O)CN1CCC(Oc2nccnc2OCc2cc(C)on2)CC1` [CBK082959T], 102%. Regarding `CC1(C(=O)O)NC(c2ccccc2O)C2C(=O)N(c3ccccc3[N+](=O)[O-])C(=O)C21` (centres unmarked) [CBK264979], the viability at 28.5 h, 10 µM came out at 107%. For `O=C(c1cccs1)N1CCC(c2onc3c2CCCC3)CC1` [CBK285181], the viability at 28.5 h, 10 µM is 93.3%.

Regarding `Cn1c(=O)c2c(nc(CN3CCOCC3)n2Cc2c(F)cccc2Cl)n(C)c1=O` [CBK269224], the viability at 28.5 h, 10 µM is 98.9%. With `CN(C)C(CNc1nccnc1-c1ccc(CO)cc1)c1cccnc1` (centres unmarked) [CBK038038], the viability at 28.5 h, 10 µM came out at 87.6%. Still for that read-out and setting: for `Cc1nc(CCCn2cnc3ncccc3c2=O)sc1C` [CBK306953] the value was 106%; for `CSc1nc2c(cc1C#N)CCC2` [CBK026532], 108%. On the same count and under the same terms, the value for `NC(=O)[C@H]1C[C@@H](O)[C@H](O)[C@H]2[C@@H]1S/C(=N\c1ccccc1)N2Cc1cccs1` [CBK288944] was 100%; that for `O=C(CN1C(=O)c2ccccc2C1=O)NCc1ccc(C(=O)O)cc1` [CBK262795] was 90.2%. Same read-out and setting: for `CCOc1ccc2nc(NC(=O)CC)sc2c1` [CBK287295] the value was 107%; for `Cc1cnn(-c2cc(N3CCC(n4cc(C5CC5)nn4)CC3)ncn2)c1` [CBK306721], 96.2%; for `Cc1nc(C)c(CCC(=O)N2CCCCC2Cn2cccn2)c(=O)[nH]1` (centres unmarked) [CBK305310], 102%. In the case of `CN(C)c1cccc(C(=O)N2CC[C@@H](c3ccccc3)[C@H](O)C2)c1` [CBK283713], the viability at 28.5 h, 10 µM worked out at 91.6%. Turning to `COCC(=O)NC(Cc1cccs1)c1nc(C)cs1` (centres unmarked) [CBK285004], the viability at 28.5 h, 10 µM was 87.3%. For the compound `CCC(=O)Nc1ccc(-n2cnc(C(=O)NCc3cccnc3)c2)nc1` [CBK288603], the viability at 28.5 h, 10 µM stood at 115%. Still for that read-out and setting: for `O=C(O)c1cc(NS(=O)(=O)c2ccc([N+](=O)[O-])cc2)ccc1O` [CBK296077] the value was 110%. The same measure, in the same setting: for `Cc1nn(C)c2nc(NCc3ccc(C(=O)N4CCCCC4)cc3)sc12` [CBK306826] the value was 86.6%; for `COCCNc1cc(-c2ccc(SC)cc2)ncn1` [CBK090795], 105%; for `OC(COc1ccccc1)Cn1ncnn1` (centres unmarked) [CBK026083], 89.6%.

As to `CN(C)C(=O)NCCNC(=O)c1c[nH]nc1-c1cc2ccccc2o1` [CBK306157], the viability at 28.5 h, 10 µM turned out to be 85.7%. Regarding `CCC(CC)(CC(=O)Nc1ccc2nc(C)sc2c1)C(=O)O` [CBK297882], the viability at 28.5 h, 10 µM was determined as 112%. Regarding `Cc1ccc2nc(CN3CCC(CNc4ccccn4)C3)cc(=O)n2c1` (centres unmarked) [CBK306340], the viability at 28.5 h, 10 µM is 83.7%. In the case of `O=[N+]([O-])c1ccc(S(=O)(=O)N2CCN(S(=O)(=O)c3ccc(Cl)cc3)CC2)cc1` [CBK264312], the viability at 28.5 h, 10 µM came to 118%. Regarding `O=C(CN1CCC(c2ccccc2F)CC1)Nc1nccs1` [CBK283579], the viability at 28.5 h, 10 µM turned out to be 106%. On the same count and under the same terms, the value for `O=C(O)Cc1csc(NC(=O)c2ccc(N3CCCCC3)c([N+](=O)[O-])c2)n1` [CBK296081] was 84.7%. Same read-out and setting: the value for `Cc1ccc(CC(=O)N2CCC(c3ncc(C(=O)Nc4ccc(F)cc4)c(C)n3)CC2)cc1` [CBK285884] was 111%.
